For one test, the target named is T1, K-Ras WT (Homo sapiens, UniProt P01116).
T1 construct: made in house; host or cells: E. coli BL21 (DE3)
Nature of the test: HTRF resonance energy transfer assay, K-Ras WT / SOS1 interaction. To be noted: HTRF assay of Example 5; read-out: IC50 against K-Ras WT. Type of test: biochemical. Summed up: (§1)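 Compounds, tested in duplicate at 10 μM down to 0.01 μM, were read after about 10 min or more by HTRF as the 665/620 nm emission ratio (337 nm excitation) to derive IC50. This ratio reports FRET between an anti-GST-Eu donor on GST-K-Ras (wild-type or mutant) and an anti-6His-XL665 acceptor on His-hSOS1. Buffer: ~5 mM HEPES pH 7.4, 150 mM NaCl, 1 mM DTT, 0.05% BSA, 0.0025% Igepal.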
A general note: Time-resolved FRET reads energy transfer from a long-lived donor to a nearby acceptor.

For the next test, the target named is T2, K-Ras G12D (Homo sapiens, UniProt P01116, G12D).
T2 construct: made in house; host or cells: E. coli BL21 (DE3)
T2 sequence (P01116 1-188 isoform P01116-2 G12D): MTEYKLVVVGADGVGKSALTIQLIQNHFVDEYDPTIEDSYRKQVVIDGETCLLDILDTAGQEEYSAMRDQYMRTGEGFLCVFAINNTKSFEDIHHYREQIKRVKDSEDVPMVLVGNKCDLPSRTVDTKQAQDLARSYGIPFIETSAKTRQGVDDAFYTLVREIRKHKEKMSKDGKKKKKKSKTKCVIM
Kind of test: HTRF resonance energy transfer assay, K-Ras G12D / SOS1 interaction. It is filed as biochemical. To be noted: HTRF assay of Example 5; read-out: IC50 against K-Ras G12D. A digest of the protocol: as §1

Another test concerns SW620 cells. Kind of test: Ras cellular assay, growth of cells with K-Ras G12V mutation (CellTiter-Glo). Type of test: cell-based. To be noted: Homo sapiens, SW-620; cell growth, Example 9, G12V mutation; read-out: IC50 against SW620 cells. A digest of the protocol:
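IC50 values came from a four-parameter fit of CellTiter-Glo viability, read roughly 6 days after dosing with e.g. a 10-point threefold dilution series. G12V-mutant SW620 cells (e.g. 800 per well) had been plated the previous day in RPMI-1640/10% heat-inactivated FBS, on tissue culture-treated or ultra-low attachment plates.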
(In general: Cellular ATP, detected with luciferase, serves as a proxy for viable cell number.)

Another test addresses T3, K-Ras G12V (Homo sapiens, UniProt P01116, G12V).
T3 construct: made in house; host or cells: E. coli BL21 (DE3)
Kind of test: HTRF resonance energy transfer assay, K-Ras G12V / SOS1 interaction. It is filed as biochemical. To be noted: HTRF assay of Example 5; read-out: IC50 against K-Ras G12V. Summed up:
as §1

Another test has as its system GP2D cells. Nature of the test: Ras cellular assay, growth of cells with K-Ras G12D mutation (CellTiter-Glo). To be noted: cell growth, Example 9, G12D mutation, read-out: IC50 against GP2D cells. It is filed as cell-based.
A further test addresses T4, K-Ras G12S (Homo sapiens, UniProt P01116, G12S).
T4 construct: made in house; host or cells: E. coli BL21 (DE3)
Nature of the test: HTRF resonance energy transfer assay, K-Ras G12S / SOS1 interaction. It is filed as biochemical. To be noted: HTRF assay of Example 5; read-out: IC50 against K-Ras G12S. A digest of the protocol: as §1

A further test concerns A549 cells. Kind of test: Ras cellular assay, growth of cells with K-Ras G12S mutation (CellTiter-Glo). Type of test: cell-based. The conditions noted are these: Homo sapiens, cell growth, Example 9, G12S mutation, read-out: IC50 against A549 cells. A digest of the protocol:
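Growth inhibition IC50 values come from four-parameter fits of CellTiter-Glo luminescence, read about 6 days after compound addition. G12S-mutant A549 cells (e.g. 800/well, RPMI-1640 + 10% heat-inactivated FBS) were plated in tissue-culture-treated or ultra-low-attachment 384-well format. Dosing began the following day with serial dilutions, e.g. 10 points, 3-fold.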

pIC50: −log10 of the molar value. Where only a bound is given, the exact number is not on record here.

T4 sequence (P01116 1-188 isoform P01116-2 G12S): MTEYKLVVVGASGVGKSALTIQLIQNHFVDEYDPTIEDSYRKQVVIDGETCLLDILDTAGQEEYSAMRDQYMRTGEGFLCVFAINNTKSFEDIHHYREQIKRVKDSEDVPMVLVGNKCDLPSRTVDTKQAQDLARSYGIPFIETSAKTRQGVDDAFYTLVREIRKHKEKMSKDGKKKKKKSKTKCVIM
T3 sequence (P01116 1-188 isoform P01116-2 G12V): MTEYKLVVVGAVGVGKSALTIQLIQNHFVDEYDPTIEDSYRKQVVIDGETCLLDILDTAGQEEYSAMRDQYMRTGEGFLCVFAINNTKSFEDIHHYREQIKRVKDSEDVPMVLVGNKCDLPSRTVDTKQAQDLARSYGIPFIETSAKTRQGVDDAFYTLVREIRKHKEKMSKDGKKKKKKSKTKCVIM
T1 sequence (P01116 1-188 isoform P01116-2): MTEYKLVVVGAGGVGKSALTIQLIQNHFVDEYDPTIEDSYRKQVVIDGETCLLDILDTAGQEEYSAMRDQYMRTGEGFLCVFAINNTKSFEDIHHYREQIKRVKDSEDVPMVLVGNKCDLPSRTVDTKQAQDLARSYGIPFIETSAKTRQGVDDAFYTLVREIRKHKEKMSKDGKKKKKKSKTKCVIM

Take `C[C@H](O)[C@H]1COc2c(Cl)c(-c3ccc(F)c4sc(N)c(C#N)c34)c(F)c3nc(OC[C@@]45CCCN4C[C@H](F)C5)nc(c23)N1CCC(F)F` [Compound 954, 2-amino-4-((5R)-8-chloro-4-(3,3-difluoropropyl)-10-fluoro-2-(((2R,7aS)-2-fluorotetrahydro-1H-pyrrolizin-7a(5H)-yl)methoxy)-5-((S)-1-hydroxyethyl)-5,6-dihydro-4H-[1,4]oxazepino[5,6,7-de]quinazolin-9-yl)-7-fluorobenzo[b]thiophene-3-carbonitrile]: the pIC50 at K-Ras WT is above 7.00; at K-Ras G12D, above 7.00; with SW620 cells it was above 5.30; on K-Ras G12V, above 7.00; in the test on GP2D cells it was above 6.30; at K-Ras G12S, above 7.00. Further, in the test with A549 cells, the negative logarithm of the IC50 (pIC50) is above 5.30.
`N#Cc1c(N)sc2c(F)ccc(-c3c(Cl)c4c5c(nc(OC[C@@]67CCCN6C[C@H](F)C7)nc5c3F)N(C3CC35CN(C=O)C5)CCO4)c12` (stereo partly drawn) [Compound 957, 2-amino-4-(8-chloro-10-fluoro-2-(((2R,7aS)-2-fluorotetrahydro-1H-pyrrolizin-7a(5H)-yl)methoxy)-4-(5-formyl-5-azaspiro[2.3]hexan-1-yl)-5,6-dihydro-4H-[1,4]oxazepino[5,6,7-de]quinazolin-9-yl)-7-fluorobenzo[b]thiophene-3-carbonitrile]: the negative logarithm of the IC50 (pIC50) is above 7.00 on K-Ras WT; above 7.00 on K-Ras G12D; above 5.30 with SW620 cells; above 7.00 on K-Ras G12V; above 6.30 with GP2D cells; above 7.00 at K-Ras G12S. The pIC50 in the test on A549 cells was above 5.30.
With `N#Cc1c(N)sc2c(F)ccc(-c3c(Cl)c4c5c(nc(OC[C@@]67CCCN6C[C@H](F)C7)nc5c3F)N(C3CCN(C(=O)[C@@H]5CCOC5)C3)CCO4)c12` (stereo partly drawn) [Compound 960, 2-amino-4-(8-chloro-10-fluoro-2-(((2R,7aS)-2-fluorotetrahydro-1H-pyrrolizin-7a(5H)-yl)methoxy)-4-(1-((R)-tetrahydrofuran-3-carbonyl)pyrrolidin-3-yl)-5,6-dihydro-4H-[1,4]oxazepino[5,6,7-de]quinazolin-9-yl)-7-fluorobenzo[b]thiophene-3-carbonitrile], the pIC50 on K-Ras WT was above 7.00; on K-Ras G12D it was above 7.00; with SW620 cells it was above 5.30; on K-Ras G12V, above 7.00; in the test with GP2D cells, above 6.30; on K-Ras G12S it was above 7.00. The pIC50 in the test on A549 cells is above 5.30.
Take `CS(=O)(=O)N1CCC(N2CCOc3c(Cl)c(-c4ccc(F)c5sc(N)c(C#N)c45)c(F)c4nc(OC[C@@]56CCCN5C[C@H](F)C6)nc2c34)C1` (stereo partly drawn) [Compound 966, 2-amino-4-(8-chloro-10-fluoro-2-(((2R,7aS)-2-fluorotetrahydro-1H-pyrrolizin-7a(5H)-yl)methoxy)-4-(1-(methylsulfonyl)pyrrolidin-3-yl)-5,6-dihydro-4H-[1,4]oxazepino[5,6,7-de]quinazolin-9-yl)-7-fluorobenzo[b]thiophene-3-carbonitrile]: the negative logarithm of the IC50 (pIC50) on K-Ras WT is above 7.00; on K-Ras G12D, above 7.00; in the test on SW620 cells, above 5.30; at K-Ras G12V, above 7.00; in the test with GP2D cells it was above 6.30; on K-Ras G12S, above 7.00. In addition, the pIC50 with A549 cells was above 5.30.
As for `N#Cc1c(N)sc2c(F)ccc(-c3c(Cl)c4c5c(nc(OC[C@@]67CCCN6C[C@H](F)C7)nc5c3F)N(C3CCNC3)CCO4)c12` (stereo partly drawn) [Compound 969, 2-amino-4-(8-chloro-10-fluoro-2-(((2R,7aS)-2-fluorotetrahydro-1H-pyrrolizin-7a(5H)-yl)methoxy)-4-(pyrrolidin-3-yl)-5,6-dihydro-4H-[1,4]oxazepino[5,6,7-de]quinazolin-9-yl)-7-fluorobenzo[b]thiophene-3-carbonitrile], the negative-log IC50 (pIC50) on K-Ras WT is above 7.00; on K-Ras G12D, above 7.00; in the test with SW620 cells it was above 5.30; at K-Ras G12V it was above 7.00; in the test on GP2D cells it was above 6.30; on K-Ras G12S, above 7.00. Also, in the test on A549 cells, the pIC50 is above 5.30.
Consider `N#Cc1c(N)sc2c(F)ccc(-c3c(Cl)c4c5c(nc(OC[C@@]67CCCN6C[C@H](F)C7)nc5c3F)N(C35COC(CF)(C3)C5)CCO4)c12` [Compound 972, 2-amino-4-(8-chloro-10-fluoro-4-(1-(fluoromethyl)-2-oxabicyclo[2.1.1]hexan-4-yl)-2-(((2R,7aS)-2-fluorotetrahydro-1H-pyrrolizin-7a(5H)-yl)methoxy)-5,6-dihydro-4H-[1,4]oxazepino[5,6,7-de]quinazolin-9-yl)-7-fluorobenzo[b]thiophene-3-carbonitrile], for which the pIC50 at K-Ras WT is above 7.00; on K-Ras G12D, above 7.00; with SW620 cells, above 5.30; at K-Ras G12V, above 7.00; with GP2D cells it was above 6.30; on K-Ras G12S, above 7.00. In addition, the pIC50 with A549 cells was above 5.30.
As for `N#Cc1c(N)sc2c(F)ccc(-c3c(Cl)c4c5c(nc(OC[C@@]67CCCN6C[C@H](F)C7)nc5c3F)N(C3CCN(C(=O)[C@@H]5CCCO5)C3)CCO4)c12` (stereo partly drawn) [Compound 984, 2-amino-4-(8-chloro-10-fluoro-2-(((2R,7aS)-2-fluorotetrahydro-1H-pyrrolizin-7a(5H)-yl)methoxy)-4-(1-((S)-tetrahydrofuran-2-carbonyl)pyrrolidin-3-yl)-5,6-dihydro-4H-[1,4]oxazepino[5,6,7-de]quinazolin-9-yl)-7-fluorobenzo[b]thiophene-3-carbonitrile], the negative-log IC50 (pIC50) was above 7.00 at K-Ras WT; above 7.00 at K-Ras G12D; above 5.30 in the test with SW620 cells; above 7.00 on K-Ras G12V; above 6.30 in the test with GP2D cells; above 7.00 on K-Ras G12S. The pIC50 in the test with A549 cells is above 5.30.
For `CN(C)CCN1CCOc2c(Cl)c(-c3ccc(F)c4sc(N)c(C#N)c34)c(F)c3nc(OC[C@@]45CCCN4C[C@H](F)C5)nc1c23` [Compound 994, 2-amino-4-(8-chloro-4-(2-(dimethylamino)ethyl)-10-fluoro-2-(((2R,7aS)-2-fluorotetrahydro-1H-pyrrolizin-7a(5H)-yl)methoxy)-5,6-dihydro-4H-[1,4]oxazepino[5,6,7-de]quinazolin-9-yl)-7-fluorobenzo[b]thiophene-3-carbonitrile], the negative-log IC50 (pIC50) was above 7.00 at K-Ras WT; above 7.00 on K-Ras G12D; above 5.30 with SW620 cells; above 7.00 at K-Ras G12V; above 6.30 in the test with GP2D cells; above 7.00 on K-Ras G12S. Further, the pIC50 in the test on A549 cells is above 5.30.
`N#Cc1c(N)sc2c(F)ccc(-c3c(Cl)c4c5c(nc(OC[C@@]67CCCN6C[C@H](F)C7)nc5c3F)N(C3CCCN(C(=O)C(F)F)C3)CCO4)c12` (stereo partly drawn) [Compound 998, 2-amino-4-(8-chloro-4-(1-(2,2-difluoroacetyl)piperidin-3-yl)-10-fluoro-2-(((2R,7aS)-2-fluorotetrahydro-1H-pyrrolizin-7a(5H)-yl)methoxy)-5,6-dihydro-4H-[1,4]oxazepino[5,6,7-de]quinazolin-9-yl)-7-fluorobenzo[b]thiophene-3-carbonitrile]: the negative logarithm of the IC50 (pIC50) at K-Ras WT is above 7.00; on K-Ras G12D, above 7.00; in the test with SW620 cells, above 5.30; at K-Ras G12V, above 7.00; with GP2D cells, above 6.30; on K-Ras G12S, above 7.00. Moreover, in the test with A549 cells, the pIC50 is above 5.30.
For the compound `CC(C(F)F)N1CCOc2c(Cl)c(-c3ccc(F)c4sc(N)c(C#N)c34)c(F)c3nc(OC[C@@]45CCCN4C[C@H](F)C5)nc1c23` (stereo partly drawn) [Compound 1000, 2-amino-4-(8-chloro-4-(1,1-difluoropropan-2-yl)-10-fluoro-2-(((2R,7aS)-2-fluorotetrahydro-1H-pyrrolizin-7a(5H)-yl)methoxy)-5,6-dihydro-4H-[1,4]oxazepino[5,6,7-de]quinazolin-9-yl)-7-fluorobenzo[b]thiophene-3-carbonitrile], the negative-log IC50 (pIC50) was above 7.00 on K-Ras WT; above 7.00 at K-Ras G12D; above 5.30 in the test on SW620 cells; above 7.00 on K-Ras G12V; above 6.30 in the test on GP2D cells; above 7.00 at K-Ras G12S. Also, the pIC50 in the test on A549 cells is above 5.30.

One may read the pIC50 as −log10 of the IC50, conventionally taken in molar units.

These data come from US12209102B2, “Heterocyclic compounds and uses thereof” (Kumquat Biosciences Inc., priority 2022, dated 2025).
